ChEMBL document CHEMBL1139870, “Structure-guided optimization of small molecules inhibiting human immunodeficiency virus 1 Tat association with the human coactivator p300/CREB binding protein-associated factor” (J Med Chem, 2007)
Activity calls are given as the source filed them. The calls are words filed in the database; no cut-off is given here.

Target: Cyclin-dependent kinase inhibitor 1 (Homo sapiens) (UniProt P38936)
Assay: Effect on p53-induced p21 transcription in response to DNA damage at 5 uM

Sequence of Cyclin-dependent kinase inhibitor 1 (Homo sapiens) (P38936 whole entry): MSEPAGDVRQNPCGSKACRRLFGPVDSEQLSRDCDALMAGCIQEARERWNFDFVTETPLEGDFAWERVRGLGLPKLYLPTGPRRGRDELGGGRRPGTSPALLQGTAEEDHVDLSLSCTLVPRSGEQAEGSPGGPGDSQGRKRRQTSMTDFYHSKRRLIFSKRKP

Structure (SMILES): CC(Cl)c1ccc(NCCCN)c([N+](=O)[O-])c1 (configuration not stated)
- Activity: inactive

Structure (SMILES): Cc1ccc(NCCCN)c([N+](=O)[O-])c1
- Activity: inactive
